Assay results taken from ChEMBL document CHEMBL1135457 (J Med Chem, 2002).

Tests used:
[1] = biological target: T1, Androgen receptor (Homo sapiens, UniProt P10275); assay: Displacement of [3H]DHT from human Androgen receptor
T1 sequence (P10275 whole entry): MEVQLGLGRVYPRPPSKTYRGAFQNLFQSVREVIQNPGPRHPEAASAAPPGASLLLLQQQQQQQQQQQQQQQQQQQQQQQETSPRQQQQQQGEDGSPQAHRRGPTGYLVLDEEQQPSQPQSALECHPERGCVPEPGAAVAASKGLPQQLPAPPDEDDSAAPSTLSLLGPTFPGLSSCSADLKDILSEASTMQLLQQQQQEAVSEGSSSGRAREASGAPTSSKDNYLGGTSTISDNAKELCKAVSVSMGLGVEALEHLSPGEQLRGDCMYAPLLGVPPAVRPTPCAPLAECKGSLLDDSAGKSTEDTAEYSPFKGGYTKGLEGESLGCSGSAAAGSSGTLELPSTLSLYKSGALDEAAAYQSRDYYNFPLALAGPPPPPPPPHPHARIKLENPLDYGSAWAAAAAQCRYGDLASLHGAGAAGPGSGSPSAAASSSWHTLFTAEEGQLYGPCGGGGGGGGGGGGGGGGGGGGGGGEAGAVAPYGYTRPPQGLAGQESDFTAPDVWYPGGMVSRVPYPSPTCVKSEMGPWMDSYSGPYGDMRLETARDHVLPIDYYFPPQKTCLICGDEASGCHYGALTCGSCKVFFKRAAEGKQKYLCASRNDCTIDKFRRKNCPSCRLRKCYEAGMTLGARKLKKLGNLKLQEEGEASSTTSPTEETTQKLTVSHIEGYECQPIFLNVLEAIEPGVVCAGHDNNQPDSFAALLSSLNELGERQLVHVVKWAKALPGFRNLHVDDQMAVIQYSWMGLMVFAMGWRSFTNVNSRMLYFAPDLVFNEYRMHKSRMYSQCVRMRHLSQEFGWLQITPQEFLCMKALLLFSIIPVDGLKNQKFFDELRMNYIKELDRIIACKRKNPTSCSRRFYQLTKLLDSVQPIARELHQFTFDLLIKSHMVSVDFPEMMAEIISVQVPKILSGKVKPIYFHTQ

[2] = biological target: T2, Mineralocorticoid receptor (Homo sapiens) (UniProt P08235)
T2 sequence (whole entry): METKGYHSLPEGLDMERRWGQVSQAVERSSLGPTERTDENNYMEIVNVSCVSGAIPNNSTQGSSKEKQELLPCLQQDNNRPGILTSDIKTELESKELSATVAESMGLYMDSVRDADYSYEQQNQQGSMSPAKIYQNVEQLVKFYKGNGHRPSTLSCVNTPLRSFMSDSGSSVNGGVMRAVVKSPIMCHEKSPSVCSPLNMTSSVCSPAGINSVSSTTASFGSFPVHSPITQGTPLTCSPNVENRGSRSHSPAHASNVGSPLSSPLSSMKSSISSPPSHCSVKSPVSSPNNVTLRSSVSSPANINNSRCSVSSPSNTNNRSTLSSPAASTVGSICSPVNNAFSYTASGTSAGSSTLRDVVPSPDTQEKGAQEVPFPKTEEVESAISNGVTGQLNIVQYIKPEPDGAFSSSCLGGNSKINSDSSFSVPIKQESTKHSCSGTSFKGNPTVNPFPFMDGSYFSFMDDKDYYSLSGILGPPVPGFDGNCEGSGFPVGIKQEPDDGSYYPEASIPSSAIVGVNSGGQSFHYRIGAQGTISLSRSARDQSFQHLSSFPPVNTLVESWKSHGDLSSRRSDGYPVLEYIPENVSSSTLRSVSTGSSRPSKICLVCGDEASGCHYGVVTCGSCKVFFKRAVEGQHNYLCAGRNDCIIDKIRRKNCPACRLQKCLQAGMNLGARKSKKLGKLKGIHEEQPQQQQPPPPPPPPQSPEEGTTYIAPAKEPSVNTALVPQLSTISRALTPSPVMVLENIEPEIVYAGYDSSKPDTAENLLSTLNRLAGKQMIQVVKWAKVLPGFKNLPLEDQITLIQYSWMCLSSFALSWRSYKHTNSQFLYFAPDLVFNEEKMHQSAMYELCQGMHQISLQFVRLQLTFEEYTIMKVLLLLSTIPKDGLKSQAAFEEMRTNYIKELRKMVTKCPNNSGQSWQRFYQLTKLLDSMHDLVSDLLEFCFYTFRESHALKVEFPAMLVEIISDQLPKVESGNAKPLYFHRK
Description: Antagonist activity against human mineralocorticoid receptor as displacement of radioligand

[3] = biological target: T3, Glucocorticoid receptor (Homo sapiens) (UniProt P04150)
T3 sequence (whole entry): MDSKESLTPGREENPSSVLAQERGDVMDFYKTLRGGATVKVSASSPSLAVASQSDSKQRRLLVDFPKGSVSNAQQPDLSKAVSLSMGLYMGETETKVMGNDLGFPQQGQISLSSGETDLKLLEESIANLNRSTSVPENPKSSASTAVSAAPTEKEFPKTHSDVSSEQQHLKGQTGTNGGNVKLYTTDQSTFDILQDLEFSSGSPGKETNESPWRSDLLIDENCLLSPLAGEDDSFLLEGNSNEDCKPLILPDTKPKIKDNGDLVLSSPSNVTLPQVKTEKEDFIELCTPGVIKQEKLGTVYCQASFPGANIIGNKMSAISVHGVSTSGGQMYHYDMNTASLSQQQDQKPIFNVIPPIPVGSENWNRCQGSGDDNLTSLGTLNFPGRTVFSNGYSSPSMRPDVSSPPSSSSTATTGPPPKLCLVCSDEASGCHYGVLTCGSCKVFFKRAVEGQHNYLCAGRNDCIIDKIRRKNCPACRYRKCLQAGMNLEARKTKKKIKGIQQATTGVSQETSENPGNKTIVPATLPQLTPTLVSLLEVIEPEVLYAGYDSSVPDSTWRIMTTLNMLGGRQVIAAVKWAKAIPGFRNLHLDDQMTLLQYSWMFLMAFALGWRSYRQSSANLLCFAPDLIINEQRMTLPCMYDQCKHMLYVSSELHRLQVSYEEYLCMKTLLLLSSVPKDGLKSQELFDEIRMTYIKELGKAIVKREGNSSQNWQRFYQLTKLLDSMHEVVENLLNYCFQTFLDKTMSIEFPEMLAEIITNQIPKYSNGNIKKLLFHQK
Description: Antagonist activity as displacement of 10 nM [3H]dexamethasone from human Glucocorticoid receptor

Compound | Ki [1] [nM] | Kif [2] [nM] | Kif [3] [nM]
O=C1CC[C@@]2(Cc3ccccc3)c3ccc(O)cc3CC[C@@H]2C1 | 1300 |  | 
Oc1ccc2c(c1)CC[C@@H]1C[C@@](O)(C#CCl)CC[C@@]21Cc1ccccc1 | 130 | > 1000 | 4.1
CC#C[C@]1(O)CCC2C3CCC4=CC(=O)CC[C@]4(Cc4ccc(C)cc4)C3=CC[C@@]21C (some centres not stated) | 90 | > 1000 | 12
